In patent publication US10092606B2, “Synbiotic mixture” (Nestec S.A., priority 2006, dated 2018):

Molecular target: toxin A from C. difficile (Clostridioides difficile, UniProt P16154)
Test: Protection of T84 monolayers against C. difficile toxin A (transepithelial electrical resistance)
Type: cell-based, Clostridium difficile
Details: T84 cells; prebiotic in combination with the same probiotic strains; fructooligosaccharides 20 g/l, galactooligosaccharides 20 g/l, sialyllactose 10 g/l; compared with preparations of the invention; FIG. 2

Sequence of toxin A from C. difficile (P16154 whole entry, looked up): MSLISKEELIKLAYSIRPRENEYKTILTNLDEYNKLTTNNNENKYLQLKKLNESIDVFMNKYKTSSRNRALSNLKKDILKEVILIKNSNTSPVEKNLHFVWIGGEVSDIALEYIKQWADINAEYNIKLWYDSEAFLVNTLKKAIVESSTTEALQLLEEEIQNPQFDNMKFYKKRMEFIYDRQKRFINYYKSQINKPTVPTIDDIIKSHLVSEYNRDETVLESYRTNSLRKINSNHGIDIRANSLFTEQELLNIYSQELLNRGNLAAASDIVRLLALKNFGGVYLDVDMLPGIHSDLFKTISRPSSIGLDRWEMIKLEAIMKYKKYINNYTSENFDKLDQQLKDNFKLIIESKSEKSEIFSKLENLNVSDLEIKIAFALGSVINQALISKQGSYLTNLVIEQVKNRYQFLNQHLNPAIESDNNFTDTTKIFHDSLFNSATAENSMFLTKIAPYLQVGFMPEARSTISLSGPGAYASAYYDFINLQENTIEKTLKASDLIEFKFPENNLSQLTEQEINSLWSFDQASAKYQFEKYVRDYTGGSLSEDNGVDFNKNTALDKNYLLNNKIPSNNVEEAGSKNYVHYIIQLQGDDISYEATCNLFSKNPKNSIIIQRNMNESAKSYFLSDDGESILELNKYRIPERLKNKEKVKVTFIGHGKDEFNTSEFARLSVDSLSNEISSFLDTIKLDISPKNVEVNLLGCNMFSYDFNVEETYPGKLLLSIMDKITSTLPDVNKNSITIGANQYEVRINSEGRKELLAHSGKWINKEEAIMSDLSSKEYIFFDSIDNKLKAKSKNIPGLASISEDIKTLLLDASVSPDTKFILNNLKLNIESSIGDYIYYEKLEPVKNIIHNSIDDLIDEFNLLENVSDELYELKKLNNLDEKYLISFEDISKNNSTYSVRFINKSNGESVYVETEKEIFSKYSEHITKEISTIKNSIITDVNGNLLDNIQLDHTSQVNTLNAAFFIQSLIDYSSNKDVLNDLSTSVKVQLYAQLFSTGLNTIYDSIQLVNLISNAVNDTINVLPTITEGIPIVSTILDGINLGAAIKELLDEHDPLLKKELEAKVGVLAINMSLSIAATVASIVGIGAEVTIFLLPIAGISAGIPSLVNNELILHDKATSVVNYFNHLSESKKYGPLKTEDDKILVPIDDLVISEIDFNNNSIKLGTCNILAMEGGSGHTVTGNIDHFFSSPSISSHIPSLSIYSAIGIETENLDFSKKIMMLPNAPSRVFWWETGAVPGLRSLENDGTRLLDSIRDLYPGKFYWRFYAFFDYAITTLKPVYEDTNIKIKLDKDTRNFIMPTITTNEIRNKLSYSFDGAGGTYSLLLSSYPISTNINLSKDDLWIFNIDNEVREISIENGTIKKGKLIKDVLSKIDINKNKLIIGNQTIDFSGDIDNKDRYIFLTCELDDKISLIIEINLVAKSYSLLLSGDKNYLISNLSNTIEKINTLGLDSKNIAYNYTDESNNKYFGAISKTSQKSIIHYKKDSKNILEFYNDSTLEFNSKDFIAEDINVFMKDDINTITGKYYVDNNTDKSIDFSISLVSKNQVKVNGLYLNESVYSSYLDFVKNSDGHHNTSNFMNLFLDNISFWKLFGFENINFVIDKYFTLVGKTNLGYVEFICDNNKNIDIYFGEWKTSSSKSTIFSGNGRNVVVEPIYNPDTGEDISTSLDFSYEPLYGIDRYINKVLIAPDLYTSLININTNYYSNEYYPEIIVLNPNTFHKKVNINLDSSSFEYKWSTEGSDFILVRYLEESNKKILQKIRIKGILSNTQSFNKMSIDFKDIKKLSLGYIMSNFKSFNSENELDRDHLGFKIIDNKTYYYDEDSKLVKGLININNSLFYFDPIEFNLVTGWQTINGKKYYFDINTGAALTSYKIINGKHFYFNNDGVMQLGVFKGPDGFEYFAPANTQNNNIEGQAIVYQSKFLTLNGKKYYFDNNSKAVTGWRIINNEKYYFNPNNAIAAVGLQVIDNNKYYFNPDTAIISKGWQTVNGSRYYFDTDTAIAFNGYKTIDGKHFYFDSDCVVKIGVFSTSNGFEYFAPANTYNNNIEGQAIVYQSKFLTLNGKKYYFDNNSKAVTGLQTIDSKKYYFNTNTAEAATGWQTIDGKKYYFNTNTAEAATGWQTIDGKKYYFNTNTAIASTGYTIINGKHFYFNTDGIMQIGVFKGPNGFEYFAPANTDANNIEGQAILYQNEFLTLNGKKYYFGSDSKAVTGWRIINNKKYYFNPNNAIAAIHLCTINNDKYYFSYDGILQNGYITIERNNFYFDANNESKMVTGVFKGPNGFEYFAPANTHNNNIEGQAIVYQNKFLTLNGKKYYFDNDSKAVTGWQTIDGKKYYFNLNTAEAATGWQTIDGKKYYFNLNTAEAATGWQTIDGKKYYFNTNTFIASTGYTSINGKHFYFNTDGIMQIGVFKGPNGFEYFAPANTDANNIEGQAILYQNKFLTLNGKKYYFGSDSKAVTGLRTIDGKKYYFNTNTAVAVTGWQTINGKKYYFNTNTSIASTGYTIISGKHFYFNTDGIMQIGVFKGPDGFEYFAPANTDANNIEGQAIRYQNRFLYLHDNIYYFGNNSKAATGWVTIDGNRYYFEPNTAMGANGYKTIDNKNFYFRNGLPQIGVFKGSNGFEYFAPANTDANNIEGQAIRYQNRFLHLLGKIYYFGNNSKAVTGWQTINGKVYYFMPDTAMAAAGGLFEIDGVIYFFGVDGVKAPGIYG

## sialyllactose
  effect against C. difficile toxin A (TER, normalized protection score): a comparable effect was not achieved
